According to ChEMBL document CHEMBL4346704, “Novel symmetric bis-benzimidazoles: Synthesis, DNA/RNA binding and antitrypanosomal activity” (Eur J Med Chem, 2019):
The source made the active and inactive calls. The calls are words filed in the database; no cut-off is given here.

Columns and labels:
Calf thymus DNA [1] = assay: Binding affinity to calf thymus DNA assessed as hypochromic effect by UV-vis spectrophotometric method relative to control; type: nucleic-acid assay; design: concentration or dose not given beside the values; conditions: Bos taurus
[2] = Binding affinity to polyA-polyU dsRNA (unknown origin) assessed as hypochromic effect by UV-vis spectrophotometric method relative to control; type: nucleic-acid assay; design: concentration or dose not given beside the values
Calf thymus DNA [3] = assay: Binding affinity to calf thymus DNA by UV-vis spectrophotometric method; type: nucleic-acid assay; conditions: Bos taurus
[4] = (§1) Binding affinity to polyA-polyU dsRNA (unknown origin) assessed as binding constant by UV-vis spectrophotometric method; type: nucleic-acid assay
Calf thymus DNA [5] = assay: Ratio of compound concentration to polynucleotide phosphate concentration for binding affinity to calf thymus DNA; type: nucleic-acid assay; conditions: Bos taurus
Calf thymus DNA [6] = assay: Binding affinity to calf thymus DNA assessed as change in melting temperature at compound to calf thymus DNA polynucleotide ratio of 0.3 by spectrophotometric analysis; type: nucleic-acid assay; conditions: Bos taurus
[7] = test system: Poly(dA-dU)oligonucleotide; assay: Binding affinity to polyA-polyU dsRNA (unknown origin) assessed as change in melting temperature at 0.3 ratio of compound to RNA by spectrophotometric analysis; type: nucleic-acid assay
Trypanosoma brucei = assay: Antitrypanosomal activity against Trypanosoma brucei 221 incubated for 48 hrs by resazurin based fluorescence assay; type: functional, organism-based; conditions: Trypanosoma brucei, 221, 48 h
Calf thymus DNA [8] = assay: Binding affinity to calf thymus DNA assessed as conformational change by circular dichroism analysis; type: nucleic-acid assay; conditions: Bos taurus
[9] = test system: Poly(dA-dU)oligonucleotide; assay: Binding affinity to polyA-polyU dsRNA (unknown origin) assessed as conformational change by circular dichroism analysis; type: nucleic-acid assay
Calf thymus DNA [10] = assay: Binding affinity to calf thymus DNA assessed as change in melting temperature at compound to calf thymus DNA polynucleotide ratio of 0.1 by spectrophotometric analysis; type: nucleic-acid assay; conditions: Bos taurus
Calf thymus DNA [11] = assay: Binding affinity to calf thymus DNA assessed as change in melting temperature at compound to calf thymus DNA polynucleotide ratio of 0.5 by spectrophotometric analysis; type: nucleic-acid assay; conditions: Bos taurus
[12] = Binding affinity to polyA-polyU dsRNA (unknown origin) assessed as change in melting temperature at 0.1 ratio of compound to RNA by spectrophotometric analysis; type: nucleic-acid assay
[13] = test system: Poly(dA-dU)oligonucleotide; assay: Binding affinity to polyA-polyU dsRNA (unknown origin) assessed as change in melting temperature at 0.5 ratio of compound to RNA by spectrophotometric analysis; type: nucleic-acid assay
L6 = assay: Cytotoxicity against rat L6 cells incubated for 6 days by resazurin based fluorescence assay; type: cell-based; conditions: L6, 144 h
[14] = test system: Poly(dA-dU)oligonucleotide; assay: as §1; type: nucleic-acid assay
[15] = Ratio of compound concentration to polynucleotide phosphate concentration for binding affinity to polyA-polyU dsRNA (unknown origin); type: nucleic-acid assay

Activity (Calf thymus DNA [1]) [%] | Activity [2] [%] | log Ks (Calf thymus DNA [3]) | Activity [4] | Ratio (Calf thymus DNA [5]) | ΔTm (Calf thymus DNA [6]) [°C] | ΔTm [7] [°C] | IC50 (Trypanosoma brucei) [µM] | Activity (Calf thymus DNA [8]) | Activity [9] | Activity (Calf thymus DNA [3]) | ΔTm (Calf thymus DNA [10]) [°C] | ΔTm (Calf thymus DNA [11]) [°C] | ΔTm [12] [°C] | ΔTm [13] [°C] | IC90 (Trypanosoma brucei) [µM] | log Ks [14] | Ratio [15] | SMILES | IC50 (L6) [µM]
16 | 23 | 4 to 5 | Active | 0.21 | 0 | 0 | > 15 | inactive | – | – | – | – | – | – | – | – | – | Fc1ccc2[nH]c(-c3ccc(Cn4cc(COc5ccc(-c6ccc(OCc7cn(Cc8ccc(-c9nc%10cc(F)ccc%10[nH]9)o8)nn7)cc6)cc5)nn4)o3)nc2c1 | –
8 | < 5 | – | – | – | – | 0.9 | > 10 | Active | Active | – | – | – | – | – | – | – | – | N=C(N)c1ccc2[nH]c(-c3ccc(Cn4cc(COc5ccc(-c6ccc(OCc7cn(Cc8ccc(-c9nc%10cc(C(=N)N)ccc%10[nH]9)o8)nn7)cc6)cc5)nn4)o3)nc2c1 | –
23 | 11 | – | Active | – | 11 | 0 | 1.5 | Active | Active | Active | 8 | 12.2 | 0 | 0 | 2.8 | – | – | CC(C)NC(=N)c1ccc2[nH]c(-c3ccc(Cn4cc(COc5ccc(OCc6cn(Cc7ccc(-c8nc9cc(C(=N)NC(C)C)ccc9[nH]8)o7)nn6)cc5)nn4)o3)nc2c1.Cl.Cl | 121
28 | 22 | 6.23 | – | 0.89 | 12.7 | 4 | 3.8 | Active | Active | – | 12.4 | 12.5 | 3.5 | – | 6 | 7.17 | 0.85 | Cl.Cl.c1cc2[nH]c(-c3ccc(Cn4cc(COCc5cn(Cc6ccc(-c7nc8cc(C9=NCCN9)ccc8[nH]7)o6)nn5)nn4)o3)nc2cc1C1=NCCN1 | 122
9 | 7 | – | Active | – | 10.7 | 0 | 1.3 | Active | Active | Active | 9.5 | 12.3 | 0 | 0 | 5.6 | – | – | Cl.Cl.N=C(N)c1ccc2[nH]c(-c3ccc(Cn4cc(COc5ccc(OCc6cn(Cc7ccc(-c8nc9cc(C(=N)N)ccc9[nH]8)o7)nn6)cc5)nn4)o3)nc2c1 | 39.6

Continued, molecule first:

SMILES | Activity (Calf thymus DNA [1]) [%] | Activity [2] [%] | log Ks (Calf thymus DNA [3]) | Activity [4] | Ratio (Calf thymus DNA [5]) | ΔTm (Calf thymus DNA [6]) [°C] | ΔTm [7] [°C] | IC50 (Trypanosoma brucei) [µM] | Activity (Calf thymus DNA [8]) | Activity [9] | Activity (Calf thymus DNA [3]) | ΔTm (Calf thymus DNA [10]) [°C] | ΔTm (Calf thymus DNA [11]) [°C] | ΔTm [12] [°C] | ΔTm [13] [°C] | IC90 (Trypanosoma brucei) [µM] | log Ks [14] | Ratio [15] | IC50 (L6) [µM]
Cl.Cl.c1cc(OCc2cn(Cc3ccc(-c4nc5cc(C6=NCCN6)ccc5[nH]4)o3)nn2)ccc1OCc1cn(Cc2ccc(-c3nc4cc(C5=NCCN5)ccc4[nH]3)o2)nn1 | 6 | 11 | – | Active | – | 8.9 | 2.2 | 0.75 | Active | Active | Active | 8.2 | 0 | 2.7 | 0 | 1.5 | – | – | 60.7
c1cc(-c2ccc(OCc3cn(Cc4ccc(-c5nc6cc(C7=NCCN7)ccc6[nH]5)o4)nn3)cc2)ccc1OCc1cn(Cc2ccc(-c3nc4cc(C5=NCCN5)ccc4[nH]3)o2)nn1 | 9 | 8 | – | – | – | 2.6 | 0 | > 10 | Active | Active | – | – | – | – | – | – | – | – | –
CC(C)NC(=N)c1ccc2[nH]c(-c3ccc(Cn4cc(CCCc5cn(Cc6ccc(-c7nc8cc(C(=N)NC(C)C)ccc8[nH]7)o6)nn5)nn4)o3)nc2c1.Cl.Cl | 24 | 32 | 6.33 | – | 0.09 | 14.5 | 0.5 | 5.1 | Active | – | – | 13.8 | 14.8 | 0.9 | 0.8 | 8.2 | 5.69 | 0.58 | 104
CC(C)NC(=N)c1ccc2[nH]c(-c3ccc(Cn4cc(COc5ccc(-c6ccc(OCc7cn(Cc8ccc(-c9nc%10cc(C(=N)NC(C)C)ccc%10[nH]9)o8)nn7)cc6)cc5)nn4)o3)nc2c1 | 8 | < 5 | – | – | – | 2.1 | 0 | > 10 | Active | Active | – | – | – | – | – | – | – | – | –
Cl.Cl.c1cc2[nH]c(-c3ccc(Cn4cc(CCCc5cn(Cc6ccc(-c7nc8cc(C9=NCCN9)ccc8[nH]7)o6)nn5)nn4)o3)nc2cc1C1=NCCN1 | 17 | 32 | 7.62 | – | 0.05 | 13.8 | 1.8 | 3.9 | Active | Active | – | 13.5 | 19.1 | 1.6 | 2.7 | 5.4 | 6.83 | 0.42 | 216
